Broadly, the inhibition is the change of the read-out against control, counted positive when it falls.

The assay addresses T1, human μ-opiate receptor (Homo sapiens, UniProt P35372).
T1 construct: purchased PerkinElmer Life Sciences, Zaventem, Belgium RB-HOM; host or cells: CHO-K1 cells (recombinant expression; membrane preparation)
As to the kind of experiment: Affinity for the human μ-opiate receptor ([3H]-naloxone displacement, SPA). As to conditions: Table 2, Examples 11-161; test substance 1 μmole/l; inhibition of specific [3H]-naloxone binding; CHO-K1 membranes; read-out: μ-Opioid receptor, % inhibition [1 μM]. The method, boiled down:
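CHO-K1 membranes expressing the receptor, incubated 90 min at room temperature with 1 nmol/l [3H]-naloxone and WGA-SPA beads in 50 mmol/l Tris-HCl with 0.06% BSA. Non-specific binding defined with 100 μmol/l naloxone. Value is % inhibition of specific binding at 1 μmol/l test substance.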

Molecules are shown by their SMILES.

T1 sequence (P35372 whole entry): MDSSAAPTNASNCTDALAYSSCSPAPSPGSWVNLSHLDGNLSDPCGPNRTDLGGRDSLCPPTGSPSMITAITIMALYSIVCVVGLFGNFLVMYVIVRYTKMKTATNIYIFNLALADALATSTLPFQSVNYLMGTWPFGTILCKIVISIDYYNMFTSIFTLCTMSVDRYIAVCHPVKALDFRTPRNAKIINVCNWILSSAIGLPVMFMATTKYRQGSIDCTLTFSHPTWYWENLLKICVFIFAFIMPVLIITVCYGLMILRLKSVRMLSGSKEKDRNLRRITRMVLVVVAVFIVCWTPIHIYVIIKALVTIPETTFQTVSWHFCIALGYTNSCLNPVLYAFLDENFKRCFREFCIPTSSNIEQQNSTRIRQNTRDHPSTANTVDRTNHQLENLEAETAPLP

With `COC(=O)C1(Cc2ccc(Cl)cc2)N=CN(Cc2ccccc2)C1C1CCC(C(c2ccc(Cl)cc2)N(C)C)CC1` (stereo not shown) [Example 49, 1-benzyl-4-(4-chlorobenzyl)-5-{4-[(4-chlorophenyl)-dimethylaminomethyl]-cyclohexyl}-4,5-dihydro-1H-imidazole-4-carboxylic acid methyl ester], the inhibition at 1 µM amounted to 84%.
For the compound `CCCCN1C=NC(CSC)(C(=O)OC)C1CC1CCC(C(c2cccc(F)c2)N(C)C)CC1` (stereo not shown) [Example 74, 1-butyl-5-{4-[dimethylamino-(3-fluorophenyl)-methyl]-cyclohexylmethyl}-4-methylsulfanylmethyl-4,5-dihydro-1H-imidazole-4-carboxylic acid methyl ester], the inhibition at 1 µM stood at 95%.
The result for `COC(=O)C1(CCSC)N=CN(Cc2ccccc2)C1CC1CCC(C(CCc2ccccc2)N(C)C)CC1` (stereo not shown) [Example 145, 1-benzyl-5-[4-(1-dimethylamino-3-phenylpropyl)-cyclohexylmethyl]-4-(2-methylsulfanyl-ethyl)-4,5-dihydro-1H-imidazole-4-carboxylic acid methyl ester] reads 79%; that for `CCCN1C=NC(CSCc2ccccc2)(C(=O)OC)C1C1CCC(C(c2ccc(Cl)cc2)N(C)C)CC1` (stereo not shown) [Example 60, 4-benzylsulfanylmethyl-5-{4-[(4-chlorophenyl)-dimethylaminomethyl]-cyclohexyl}-1-propyl-4,5-dihydro-1H-imidazole-4-carboxylic acid methyl ester], 95%.
For the compound `CCCN1C=NC(CCC)(C(=O)OC)C1CC1CCC(C(c2cccc(F)c2)N(C)C)CC1` (stereo not shown) [Example 111, 5-{4-[dimethylamino-(3-fluorophenyl)-methyl]-cyclohexylmethyl}-1,4-dipropyl-4,5-dihydro-1H-imidazole-4-carboxylic acid methyl ester], the inhibition at 1 µM was found to be 90%.
The result for `COC(=O)CCC1(C(=O)OC)N=CN(Cc2ccccc2)C1CC1CCC(C(c2ccc(F)cc2)N(C)C)CC1` (stereo not shown) [Example 87, 1-benzyl-5-{4-[dimethylamino-(4-fluorophenyl)-methyl]-cyclohexylmethyl}-4-(2-methoxycarbonylethyl)-4,5-dihydro-1H-imidazole-4-carboxylic acid methyl ester] reads 95%.
Turning to `COC(=O)C1(Cc2ccc(Cl)cc2)N=CN(CCc2ccccc2)C1C1CCC(C(c2ccc(Cl)cc2)N(C)C)CC1` (stereo not shown) [Example 41, 4-(4-chlorobenzyl)-5-{4-[(4-chlorophenyl)-dimethylaminomethyl]-cyclohexyl}-1-phenethyl-4,5-dihydro-1H-imidazole-4-carboxylic acid methyl ester], the inhibition at 1 µM was 79%.
The result for `COC(=O)C1(C)N=CN(C2CCCCC2)C1CC1CCC(C(c2ccc(F)cc2)N(C)C)CC1` (stereo not shown) [Example 107, 1-cyclohexyl-5-{4-[dimethylamino-(4-fluorophenyl)-methyl]-cyclohexylmethyl}-4-methyl-4,5-dihydro-1H-imidazole-4-carboxylic acid methyl ester] reads 87%.
The result for `COC(=O)C1(CC(C)C)N=CN(CCc2ccccc2)C1C1CCC(C(c2cccc(F)c2)N(C)C)CC1` (stereo not shown) [Example 37, 5-{4-[dimethylamino-(3-fluorophenyl)-methyl]-cyclohexyl}-4-isobutyl-1-phenethyl-4,5-dihydro-1H-imidazole-4-carboxylic acid methyl ester] reads 93%.
In the case of `COC(=O)C1(CCSC)N=CN(C2CCCCC2)C1CC1CCC(C(c2cccc(F)c2)N(C)C)CC1` (stereo not shown) [Example 103, 1-cyclohexyl-5-{4-[dimethylamino-(3-fluorophenyl)-methyl]-cyclohexylmethyl}-4-(2-methylsulfanyl-ethyl)-4,5-dihydro-1H-imidazole-4-carboxylic acid methyl ester], the inhibition at 1 µM worked out at 99%.
The result for `COC(=O)C1(CC(C)C)N=CN(C2CCCCC2)C1CC1CCC(C(c2ccc(Cl)cc2)N(C)C)CC1` (stereo not shown) [Example 17, 5-{4-[(4-chlorophenyl)-dimethylaminomethyl]-cyclohexylmethyl}-1-cyclohexyl-4-isobutyl-4,5-dihydro-1H-imidazole-4-carboxylic acid methyl ester] reads 96%; that for `COC(=O)C1(CC(C)C)N=CN(C2CCCCC2)C1C1CCC(C(c2cccc(F)c2)N(C)C)CC1` (stereo not shown) [Example 11, 1-cyclohexyl-5-{4-[dimethylamino-(3-fluorophenyl)-methyl]-cyclohexyl}-4-isobutyl-4,5-dihydro-1H-imidazole-4-carboxylic acid methyl ester], 84%.
With `CCC(C)C1(C(=O)OC)N=CN(C2CCCCC2)C1CC1CCC(C(c2cccc(F)c2)N(C)C)CC1` (stereo not shown) [Example 148, 4-sec-butyl-1-cyclohexyl-5-{4-[dimethylamino-(3-fluorophenyl)-methyl]-cyclohexylmethyl}-4,5-dihydro-1H-imidazole-4-carboxylic acid methyl ester], the inhibition at 1 µM was 95%.
The result for `CCCCC1(C(=O)OC)N=CN(C2CCCCC2)C1CC1CCC(C(c2ccc(Cl)cc2)N(C)C)CC1` (stereo not shown) [Example 19, 4-butyl-5-{4-[(4-chlorophenyl)-dimethylaminomethyl]-cyclohexylmethyl}-1-cyclohexyl-4,5-dihydro-1H-imidazole-4-carboxylic acid methyl ester] reads 96%; that for `CCCN1C=NC(CSC)(C(=O)OC)C1CC1CCC(C(c2ccc(Cl)cc2)N(C)C)CC1` (stereo not shown) [Example 63, 5-{4-[(4-chlorophenyl)-dimethylaminomethyl]-cyclohexylmethyl}-4-methylsulfanylmethyl-1-propyl-4,5-dihydro-1H-imidazole-4-carboxylic acid methyl ester], 97%; that for `COC(=O)C1(Cc2ccc(Cl)cc2)N=CN(C2CCCCC2)C1C1CCC(C(c2ccc(Cl)cc2)N(C)C)CC1` (stereo not shown) [Example 15, 4-(4-chlorobenzyl)-5-{4-[(4-chlorophenyl)-dimethylaminomethyl]-cyclohexyl}-1-cyclohexyl-4,5-dihydro-1H-imidazole-4-carboxylic acid methyl ester], 76%.
Consider `CCCCC1(C(=O)OC)N=CN(Cc2ccccc2)C1CC1CCC(C(c2ccc(Cl)cc2)N(C)C)CC1` (stereo not shown) [Example 114, 1-benzyl-4-butyl-5-{4-[(4-chlorophenyl)-dimethylaminomethyl]-cyclohexylmethyl}-4,5-dihydro-1H-imidazole-4-carboxylic acid methyl ester], for which the inhibition at 1 µM is 86%.
`CCCCN1C=NC(CSCc2ccccc2)(C(=O)OC)C1CC1CCC(C(CCc2ccccc2)N(C)C)CC1` (stereo not shown) [Example 79, 4-benzylsulfanylmethyl-1-butyl-5-[4-(1-dimethylamino-3-phenylpropyl)-cyclohexylmethyl]-4,5-dihydro-1H-imidazole-4-carboxylic acid methyl ester]: the inhibition at 1 µM turned out to be 79%.
The result for `CCCN1C=NC(Cc2ccc(Cl)cc2)(C(=O)OC)C1C1CCC(C(c2cccc(F)c2)N(C)C)CC1` (stereo not shown) [Example 22, 4-(4-chlorobenzyl)-5-{4-[dimethylamino-(3-fluorophenyl)-methyl]-cyclohexyl}-1-propyl-4,5-dihydro-1H-imidazole-4-carboxylic acid methyl ester] reads 88%.
